Values quoted from earlier work as cited in patent US20170119704A1, “TREATMENT OF COGNITIVE IMPAIRMENT” (Ovid Therapeutics Inc., priority 2015, published 2017).

Details: in vivo

SMILES: CN(C)CCO/N=C(/C=C/c1ccc(O)cc1)c1ccccc1F [Eplivanserin, (1Z,2E)-1-(2-fluorophenyl)-3-(4-hydroxyphenyl)-prop-2-en-1-one-O-(2-dimethylaminoethyl)-oxime]
- absorption (well absorbed): > 70%
